Patent US20240270740A1, “INHIBITORS OF CYCLIC GMP-AMP SYNTHASE AND USES THEREOF” (Ventus Therapeutics U.S., Inc., priority 2022, published 2024)

Assays:
hcGAS [1] = molecular target: T1, hcGAS (Homo sapiens, UniProt Q8N884); assay: hcGAS LCMS assay (direct measurement of cGAMP production); type: biochemical; details: 0.5 nM hcGAS, 100 μM ATP, 100 μM GTP, 25 nM dsDNA, 4 h incubation
Procedure, shortened: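 Direct LC/MS readout of cGAMP formed: 4-h enzyme–substrate incubation with compound, stopped by acetonitrile/water quench carrying isotope-labelled cGAMP (0.15 mM) as standard. Potency reported as IC50 ranges.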

hcGAS [2] = molecular target: T1, hcGAS; assay: hcGAS Kinase-Glo assay (ATP depletion); type: biochemical; details: 40 nM hcGAS, 100 μM ATP, 100 μM GTP, 25 nM dsDNA, 3 h incubation
Procedure, shortened: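 Human cGAS activity measured indirectly as ATP depletion by Kinase-Glo luminescence, following the Lama et al. method with modified conditions. Output is IC50, binned into potency categories.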

T1 sequence (Q8N884 whole entry): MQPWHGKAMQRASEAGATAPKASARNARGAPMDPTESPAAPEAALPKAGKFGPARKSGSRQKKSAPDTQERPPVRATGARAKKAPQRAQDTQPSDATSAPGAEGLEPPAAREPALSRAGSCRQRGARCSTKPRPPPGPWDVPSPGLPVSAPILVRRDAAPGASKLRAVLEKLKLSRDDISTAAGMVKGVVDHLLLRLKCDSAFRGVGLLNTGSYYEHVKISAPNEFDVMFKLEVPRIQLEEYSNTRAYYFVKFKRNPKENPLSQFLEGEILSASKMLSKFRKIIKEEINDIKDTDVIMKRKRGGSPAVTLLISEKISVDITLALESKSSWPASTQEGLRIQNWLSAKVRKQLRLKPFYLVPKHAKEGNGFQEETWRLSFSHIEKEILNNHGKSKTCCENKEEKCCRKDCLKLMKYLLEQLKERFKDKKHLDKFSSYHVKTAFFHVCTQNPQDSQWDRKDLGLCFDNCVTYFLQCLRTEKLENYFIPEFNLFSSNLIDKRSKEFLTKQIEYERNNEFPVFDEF

Row | IC50 (hcGAS [1]) | IC50 (hcGAS [2]) | Compound
1 | 5 to 20 nM | < 10 nM | COc1c(N[C@H]2CCC[C@@H]2OC)cc(C(=O)Nc2nnc(-n3nccc3C)s2)oc1=O (racemic) [Rac-107, 3-methoxy-4-(((1S,2S)-2-methoxycyclopentyl)amino)-N-(5-(5-methyl-1H-pyrazol-1-yl)-1,3,4-thiadiazol-2-yl)-2-oxo-2H-pyran-6-carboxamide]
2 | < 5 nM | < 10 nM | COc1c(N[C@@H]2CCC[C@@H]2O)cc(C(=O)Nc2nnc(-n3nccc3C)s2)oc1=O [Compound 112, 4-(((1R,2S)-2-hydroxycyclopentyl)amino)-3-methoxy-N-(5-(5-methyl-1H-pyrazol-1-yl)-1,3,4-thiadiazol-2-yl)-2-oxo-2H-pyran-6-carboxamide]
3 | < 5 nM | < 10 nM | COc1c(N[C@@H]2CCC[C@@H]2O)cc(C(=O)Nc2nnc(-c3sccc3Cl)s2)oc1=O (racemic) [Rac-7, N-(5-(3-chlorothiophen-2-yl)-1,3,4-thiadiazol-2-yl)-4-(((cis)-2-hydroxycyclopentyl)amino)-3-methoxy-2-oxo-2H-pyran-6-carboxamide]
4 | 20 to 60 nM | 10 to 30 nM | COc1c(N[C@H]2CC[C@H](OC)CC2)cc(C(=O)Nc2nnc(-n3nccc3C)s2)oc1=O [Compound 11, 3-methoxy-4-(((1,4-trans)-4-methoxycyclohexyl)amino)-N-(5-(5-methyl-1H-pyrazol-1-yl)-1,3,4-thiadiazol-2-yl)-2-oxo-2H-pyran-6-carboxamide]
5 | 5 to 20 nM | 10 to 30 nM | COc1c(N2CC[C@@H](OC)C2)cc(C(=O)Nc2nnc(-n3nccc3C)s2)oc1=O [Compound 31, (R)-5-methoxy-4-(3-methoxypyrrolidin-1-yl)-N-(5-(5-methyl-1H-pyrazol-1-yl)-1,3,4-thiadiazol-2-yl)-6-oxo-6H-pyran-2-carboxamide]
6 | 5 to 20 nM | 30 to 100 nM | COc1c(NCc2ccccc2)cc(C(=O)Nc2nnc(-n3nccc3C)s2)oc1=O [Compound 103, 4-(benzylamino)-3-methoxy-N-(5-(5-methyl-1H-pyrazol-1-yl)-1,3,4-thiadiazol-2-yl)-2-oxo-2H-pyran-6-carboxamide]
7 | 5 to 20 nM | 10 to 30 nM | COc1c(NC23CC(CC#N)(C2)C3)cc(C(=O)Nc2nnc(-n3nccc3C)s2)oc1=O [Compound 116, 4-((3-(cyanomethyl)bicyclo[1.1.1]pentan-1-yl)amino)-3-methoxy-N-(5-(5-methyl-1H-pyrazol-1-yl)-1,3,4-thiadiazol-2-yl)-2-oxo-2H-pyran-6-carboxamide]
8 | 20 to 60 nM | 30 to 100 nM | COc1c(N[C@@H]2CCOC2)cc(C(=O)Nc2nnc(-n3nccc3C)s2)oc1=O [Compound 184, (R)-3-methoxy-N-(5-(5-methyl-1H-pyrazol-1-yl)-1,3,4-thiadiazol-2-yl)-2-oxo-4-((tetrahydrofuran-3-yl)amino)-2H-pyran-6-carboxamide]
9 | < 5 nM | < 10 nM | COc1c(N2CCCC2=O)cc(C(=O)Nc2nnc(-n3nccc3C)s2)oc1=O [Compound 42, 3-methoxy-N-(5-(5-methyl-1H-pyrazol-1-yl)-1,3,4-thiadiazol-2-yl)-2-oxo-4-(2-oxopyrrolidin-1-yl)-2H-pyran-6-carboxamide]
10 | 5 to 20 nM | 10 to 30 nM | COc1c(N2C[C@H](OC)[C@@H](OC)C2)cc(C(=O)Nc2nnc(-n3nccc3C)s2)oc1=O (racemic) [Rac-92, 4-((3S,4S)-3,4-dimethoxypyrrolidin-1-yl)-3-methoxy-N-(5-(5-methyl-1H-pyrazol-1-yl)-1,3,4-thiadiazol-2-yl)-2-oxo-2H-pyran-6-carboxamide]
11 | 5 to 20 nM | 30 to 100 nM | COc1c(N[C@H]2CCOC2)cc(C(=O)Nc2nnc(-n3nccc3C)s2)oc1=O [Compound 185, (S)-3-methoxy-N-(5-(5-methyl-1H-pyrazol-1-yl)-1,3,4-thiadiazol-2-yl)-2-oxo-4-((tetrahydrofuran-3-yl)amino)-2H-pyran-6-carboxamide]
